Results as given in article doi:10.64898/2025.12.18.695077v1, “Stereospecific GPG acylation by CLN8 drives BMP biosynthesis and its loss leads to Batten disease” (biorxiv, 2025).

Key:
[1] = molecular target: T1, CLN8 (tag-cleaved, codon-optimised human CLN8 from yeast) (Homo sapiens, UniProt Q9UBY8); experiment: cryo-EM structure, […] A; type: binding; conditions: covalent acyl-enzyme intermediate at H138 proposed (continuous density not resolved), CoA at the dimer interface, incubated with 100 uM
T1 construct: full-length, C-terminal 6xHis tag cut with Factor Xa; expressed in S. cerevisiae W303.1B; homodimer in LMNG; residues 1-15 and 261-286 disordered

[2] = molecular target: T1, CLN8 (tag-cleaved, codon-optimised human CLN8 from yeast); experiment: cryo-EM structure, […] A; type: binding; conditions: co-purified; transmembrane pocket of each monomer at the dimer interface, not the active site

## CCCCCCCC/C=C\CCCCCCCC(=O)SCCNC(=O)CCNC(=O)[C@H](O)C(C)(C)COP(=O)(O)OP(=O)(O)OC[C@H]1O[C@@H](n2cnc3c(N)ncnc32)[C@H](O)[C@@H]1OP(=O)(O)O [C18:1-CoA]
[1]; oleoyl chain modelled in the active site
  cryo-EM structure, 2.7 A: we determined cryo-EM structures of CLN8 prepared in the presence of either C18:1-CoA or C22:6-CoA

## CC/C=C\C/C=C\C/C=C\C/C=C\C/C=C\C/C=C\CCC(=O)SCCNC(=O)CCNC(=O)[C@H](O)C(C)(C)COP(=O)(O)OP(=O)(O)OC[C@H]1O[C@@H](n2cnc3c(N)ncnc32)[C@H](O)[C@@H]1OP(=O)(O)O [C22:6-CoA]
[1]; C22:6 chain modelled in the active site
  cryo-EM structure, 2.7 A: we determined cryo-EM structures of CLN8 prepared in the presence of either C18:1-CoA or C22:6-CoA

## CC(C)(COP(=O)(O)OP(=O)(O)OC[C@H]1O[C@@H](n2cnc3c(N)ncnc32)[C@H](O)[C@@H]1OP(=O)(O)O)[C@@H](O)C(=O)NCCC(=O)NCCS [CoA]
[2]
  cryo-EM structure, 3.65 A: we observed two coenzyme A (CoA) molecules bound in pockets located within the transmembrane region
